Measurements reported in US20230094545A1, “S1P RECEPTOR MODULATORS” (AKAAL PHARMA PTY LTD, priority 2020, published 2023).
Entries after “also recorded” stand apart in the source; their conditions may differ. Read-outs that look alike come from different tables or passages of the source.

Columns and labels:
S1P1 receptor = S1P1 receptor (Homo sapiens, UniProt P21453); experiment: S1P1 receptor degradation (activity v/s degradation margin); assay type: cell-based
excision wound = experiment: Animal model of excision wound; assay type: in vivo, Wistar rats; details: 3% w/w ointment, 0.20 g/animal wound, topically twice daily
Protocol: Two groups with six Wistar rats in each group were anaesthetized with a dose of 80 mg/kg of ketamine (i.p.) and the back of the animals were shaved. One excision wound was inflicted by cutting away (with a sterile scalpel) a 600-700 mm^2 section of the full thickness of the skin from a predetermined area. The wound was left undressed to the open environment. Group 1 rats were untreated and served as sham control. Group 2 animals were treated with a compound of Formula I in an ointment formulation (3% w/w). The ointment (0.20 g/animal wound) was applied topically twice daily.

[1] = tested on: microglial (BV2 cells) and macrophages (Raw cells); experiment: LPS-treated microglial and macrophage cells, cytokines by ELISA; assay type: cell-based; details: 1-5 μg/mL, 4 hrs prior to LPS 500 ng/mL, p<0.05
Protocol: Treatment of a compound of formula (I) (1-5 μg/mL) to the cultured microglial (BV2 cells) and macrophages (Raw cells) was made 4 hrs prior to treatment with lipopolysaccharide (LPS) at 500 ng/mL. After 16-18 hr of drug treatment the cytokines (TNFα, IL1β and IL6) were measured in culture media by ELISA and expression levels of cyclooxygenase2 (Cox-2), inducible […] (iNOS) or beta actin were analysed in cell homogenates by western analysis.

[2] = tested on: atopic dermatitis and psoriasis disease models; experiment: Atopic dermatitis and psoriasis disease models, cytokines; details: in vivo
[3] = tested on: paclitaxel induced neuropathic pain; experiment: Paclitaxel induced neuropathic pain; assay type: in vivo, Sprague Dawley Rats
Protocol: Forty-eight male Sprague Dawley Rats were assigned to different treatment and control groups containing 8 animals per group. All animals, except the Naive control were injected with Paclitaxel (2 mg/kg) intraperitoneally on four alternate days (D0, D2, D4 and D6). For prophylactic intervention, the compound of Formula I was dosed orally at dose of 0.3, 1 and 3 mg/kg/day when the treatment was initiated along with paclitaxel treatment and the dosage was continued until day 15 post first paclitaxel injection. For therapeutic intervention, the compound of Formula I was dosed orally at dose of 3 mg/kg/day when the treatment was initiated after establishment of neuropathic pain i.e. on day 16 post first paclitaxel injection and was continued for the next 7 days.
For behavioural testing each rat was allowed to acclimatize individually to a transparent enclosure on elevated wire mesh for at least 15 min. Behavioural testing was performed using an Electronic von Frey Aesthesiometer (IITC Life Science) to evaluate paw withdrawal threshold to mechanical stimulus.
Based on these findings it can be concluded that treatment with the compound of formula (I) is effective both as a prophylactic and therapeutic and has an anti-allodynic effect in paclitaxel induced neuropathic pain.

EAE = experiment: Animal model of multiple sclerosis (EAE induced with guinea pig MBP); assay type: in vivo, Lewis rats; details: EAE rats, oral every day until day 26
Protocol: The oral treatment with a compound of formula (I) was conducted in an animal model of multiple sclerosis. EAE was induced in female Lewis rats with guinea pig MBP (25 μg/rat).

[4] = tested on: dinitrofluorobenzene (DNFB)-induced delayed-type hypersensitivity; experiment: DNFB-induced delayed-type hypersensitivity (DTH); assay type: in vivo; details: 3 mg/kg twice daily
Protocol: The efficacy of compound of formula (I) was determined in an animal model of dinitrofluorobenzene (DNFB)-induced delayed-type hypersensitivity (DTH), an inflammatory model. The animals (n=9) were treated with the vehicle or a compound of formula (I), receiving a twice daily dose of 3 mg/kg. The efficacy end points were measured as Ear thickness before challenge and 24 h after challenge. Ear weight was measured 24 h after challenge. At sacrifice, right ear samples were collected and used for tissue MPO activity.

[5] = Solubility in water / precipitation in buffer; assay type: physicochemical; details: listed as compound of formula I
Protocol: To solubilize the free base in water the novel technology AvignaSOL (N,N-Dimethyl hexanamide; patent number: U.S. Pat. No. 9,186,338B2) and its higher derivatives such as octinamide, decamide which improve the absorption of various poorly soluble drugs was used. AvignaSOL as 1-70% ww % assisted the solubilization of free base as 1 gm/20 mL of water. The solubility of free base in water assisted its direct use in various formulation such as creams, gels, solutions which together with the permeation enhancing effect will be harnessed to improve skin penetration and/or bioavailability and in altering the pharmacokinetics and pharmacodynamics profile of free base.
The AvignaSOL having a log P of ˜1.6 hinder the release by increasing the hydrophobicity of the delivery system. […] The combination of compound of formula I with other ingredients including sustained release enhancer with or without AvignaSOL were prepared as novel formulation techniques to improve and/or alter the pharmacokinetics and pharmacodynamics profile of compound of Formula I.

Incision mediated pain = experiment: Deep incision wound mediated pain, topical treatment; assay type: in vivo, Sprague Dawley Rats
Excerpt: The total 24 female Sprague Dawley Rats were assigned to two test and two control groups having 6 animals per group. Animals from G1 and G2 received CFA on Day 1 by intraplanter route followed application of test item (0 and 3% respectively), onto injection site from Day 1 to Day 7. Group G3 and G4 animals received deep incision through the skin and fascia of the plantar foot followed by application of test item (0 and 3% respectively), onto the incision site from Day 1 to Day 7. Clinical signs, body weight and pain assessment parameters like Von Frey estimation and FOB was evaluated and the pain reduction results at Day 7 are summarized in Table 7.

[6] = tested on: RAW 264.7 cell line (monocyte cells); experiment: Heat-killed P. acne challenged RAW 264.7 cells, cytokines by ELISA; assay type: cell-based; details: Mus musculus, RAW264.7, compared to untreated
Protocol: RAW 264.7 cell line (monocyte cells) challenged with the heat-killed Propionibacterium acne (P. acne) and incubated for 1 hour and were divided into four groups as G1=not challenged with P. acne, G2=challenged with P. acne but untreated, G3=challenged with P. acne and treated with 1 μM of compound of formula I, G3=challenged with P. acne and treated with 3 μM of compound of formula I. The ELISA method was used to analyze the effect of compound of formula I on the secretion of proinflammatory cytokines the TNFα and IL6. Compound of formula I inhibits the cytokines in P. acne challenged monocyte cells. The results are shown in below FIG. 6. The compound of formula I inhibit the secretion of TNFα@1 μM=˜42% and @3 μM=˜69% and IL6@1 μM=˜27% and @3 μM=˜42% compared to untreated in P. acne challenged cell line.

[7] = read-out: inhibition of secretion of IL6
[8] = read-out: inhibition of secretion of TNFα

S1P1 receptor, sequence (P21453 whole entry): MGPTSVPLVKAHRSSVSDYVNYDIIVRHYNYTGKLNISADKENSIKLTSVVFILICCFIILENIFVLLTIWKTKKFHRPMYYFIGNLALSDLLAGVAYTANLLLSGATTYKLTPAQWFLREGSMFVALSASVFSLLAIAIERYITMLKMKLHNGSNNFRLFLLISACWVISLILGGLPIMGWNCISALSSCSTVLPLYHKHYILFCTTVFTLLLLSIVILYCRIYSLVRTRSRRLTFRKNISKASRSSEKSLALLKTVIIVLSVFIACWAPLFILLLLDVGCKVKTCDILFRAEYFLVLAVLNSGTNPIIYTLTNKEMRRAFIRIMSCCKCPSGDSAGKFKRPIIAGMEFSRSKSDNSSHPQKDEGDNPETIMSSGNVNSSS

CCCOc1ccc(-c2nc(-c3ccc4oc(C(N)(CO)CO)cc4c3)no2)cc1Cl [compound of formula (I)]
activity v/s degradation margin (S1P1 receptor): greater than 100
wound healing (excision wound): did not inhibit or impair the wound healing
proinflammatory cytokines (TNFα, IL1β and IL6) [1]: significant reduction of proinflammatory cytokines
cytokines IL17, IL23, IL2 [2]: downregulates the cytokines IL17, IL23, IL2
neuropathic pain, therapeutic treatment ([3]; 3 mg/kg/day oral after establishment of pain, maximum effect after 5th daily dose): reversal of neuropathic pain in time dependent manner
development of neuropathic pain, prophylactic treatment ([3]; 0.3, 1 and 3 mg/kg/day oral, maximum effect at 3 mg/kg/day): inhibited the development of paclitaxel induced neuropathic pain dose dependently
reduction of day 16 score ([3]; preventive model, 1 and 3 mg/kg dose levels, p<0.001): > 60%
anti-allodynic effect after withdrawal of treatment on day 15 ([3]; until 7 days post last drug treatment (day 22)): did not cause any reversal of the drug's anti-allodynic effect
lymphopenia (EAE): lymphopenia was less; also recorded: short-term and quickly reversed
MPO activity (ear tissue) [4]: significantly reduced
reduction of ear thickness ([4]; 24 h after challenge, p<0.0001): ~70%
reduction of ear weight ([4]; 24 h after challenge, p<0.01): ~50%
solubility in water [5]: soluble in water
Pain reduction results at Day 7, Incision mediated pain (Incision mediated pain; 3% (G4), Placebo (G3) 0.33): 0.11
pain relief (Incision mediated pain; 3% topical Day 1 to Day 7, day 7): 67%
inhibition at 1 µM [6, 7]: ~27%
inhibition at 1 µM [6, 8]: ~42%
inhibition at 3 µM [6, 7]: ~42%
inhibition at 3 µM [6, 8]: ~69%
